Measured values as given in ChEMBL document CHEMBL4346688, “Discovery of novel mutant-combating ALK and ROS1 dual inhibitors bearing imidazolidin-2-one moiety with reasonable PK properties” (Eur J Med Chem, 2019).

Columns and labels:
KARPAS-299 = assay: cells; details: Homo sapiens, KARPAS-299, 72 h
Description: Cytotoxicity against human KARPAS299 cells incubated for 72 hrs by MTT assay

NCI-H2228 = assay: cells; details: Homo sapiens, NCI-H2228, 72 h
Description: Cytotoxicity against human NCI-H2228 cells incubated for 72 hrs by MTT assay

BaF3 [1] = assay: cells; details: Mus musculus, BaF3, 72 h
BaF3 [2] = assay: cells; details: Mus musculus, BaF3, 72 h; remark: listed apart in the source
Description: Cytotoxicity against mouse BA/F3 cells incubated for 72 hrs by MTT assay

HCC78 = assay: cells; details: Homo sapiens, HCC78, 72 h
Description: Cytotoxicity against human HCC78 cells incubated for 72 hrs by MTT assay

A549 [3] = assay: cells; details: Homo sapiens, A549, 72 h
A549 [4] = assay: cells; details: Homo sapiens, A549, 72 h; remark: listed apart in the source
Description: Cytotoxicity against human A549 cells incubated for 72 hrs by MTT assay

[5] = AUCt in Sprague-Dawley rat at 10 mg/kg, po by UPLC/MS/MS analysis; type: ADME, organism-based; details: in vivo
[6] = molecular target: ALK tyrosine kinase receptor (Homo sapiens, UniProt Q9UM73)
Description: Inhibition of N-terminal GST-tagged human ALK cytoplasmic domain (1058 to 1620 residues) expressed in Baculovirus expression system using srctide as substrate incubated for 1 hr by mobility shift assay

[7] = molecular target: ALK tyrosine kinase receptor (Homo sapiens, UniProt Q9UM73, L1196M)
[8] = molecular target: ALK tyrosine kinase receptor (Homo sapiens, UniProt Q9UM73, G1202R)
[9] = Tmax in Sprague-Dawley rat at 10 mg/kg, po by UPLC/MS/MS analysis; type: ADME, organism-based; details: in vivo
[10] = Half life in Sprague-Dawley rat at 10 mg/kg, po by UPLC/MS/MS analysis; type: ADME, organism-based; details: in vivo
[11] = AUCinfinity in Sprague-Dawley rat at 10 mg/kg, po by UPLC/MS/MS analysis; type: ADME, organism-based; design: dose 10 mg/kg, route oral, time infinity; details: in vivo
[12] = molecular target: Proto-oncogene tyrosine-protein kinase ROS (Homo sapiens, UniProt P08922)
Description: Inhibition of N-terminal GST-tagged human ROS1 cytoplasmic domain (1883 to 2347 residues) expressed in Baculovirus expression system using IRS1 as substrate incubated for 1 hr by mobility shift assay

[13] = molecular target: Epidermal growth factor receptor (Homo sapiens, UniProt P00533)
Description: Inhibition of N-terminal GST-tagged human EGFR cytoplasmic domain (669 to 1210 residues) expressed in Baculovirus expression system using srctide as substrate incubated for 1 hr by mobility shift assay

in vivo = details: Sprague-Dawley, rat, po, 10 mg/kg

Sequence of Proto-oncogene tyrosine-protein kinase ROS (P08922 whole entry): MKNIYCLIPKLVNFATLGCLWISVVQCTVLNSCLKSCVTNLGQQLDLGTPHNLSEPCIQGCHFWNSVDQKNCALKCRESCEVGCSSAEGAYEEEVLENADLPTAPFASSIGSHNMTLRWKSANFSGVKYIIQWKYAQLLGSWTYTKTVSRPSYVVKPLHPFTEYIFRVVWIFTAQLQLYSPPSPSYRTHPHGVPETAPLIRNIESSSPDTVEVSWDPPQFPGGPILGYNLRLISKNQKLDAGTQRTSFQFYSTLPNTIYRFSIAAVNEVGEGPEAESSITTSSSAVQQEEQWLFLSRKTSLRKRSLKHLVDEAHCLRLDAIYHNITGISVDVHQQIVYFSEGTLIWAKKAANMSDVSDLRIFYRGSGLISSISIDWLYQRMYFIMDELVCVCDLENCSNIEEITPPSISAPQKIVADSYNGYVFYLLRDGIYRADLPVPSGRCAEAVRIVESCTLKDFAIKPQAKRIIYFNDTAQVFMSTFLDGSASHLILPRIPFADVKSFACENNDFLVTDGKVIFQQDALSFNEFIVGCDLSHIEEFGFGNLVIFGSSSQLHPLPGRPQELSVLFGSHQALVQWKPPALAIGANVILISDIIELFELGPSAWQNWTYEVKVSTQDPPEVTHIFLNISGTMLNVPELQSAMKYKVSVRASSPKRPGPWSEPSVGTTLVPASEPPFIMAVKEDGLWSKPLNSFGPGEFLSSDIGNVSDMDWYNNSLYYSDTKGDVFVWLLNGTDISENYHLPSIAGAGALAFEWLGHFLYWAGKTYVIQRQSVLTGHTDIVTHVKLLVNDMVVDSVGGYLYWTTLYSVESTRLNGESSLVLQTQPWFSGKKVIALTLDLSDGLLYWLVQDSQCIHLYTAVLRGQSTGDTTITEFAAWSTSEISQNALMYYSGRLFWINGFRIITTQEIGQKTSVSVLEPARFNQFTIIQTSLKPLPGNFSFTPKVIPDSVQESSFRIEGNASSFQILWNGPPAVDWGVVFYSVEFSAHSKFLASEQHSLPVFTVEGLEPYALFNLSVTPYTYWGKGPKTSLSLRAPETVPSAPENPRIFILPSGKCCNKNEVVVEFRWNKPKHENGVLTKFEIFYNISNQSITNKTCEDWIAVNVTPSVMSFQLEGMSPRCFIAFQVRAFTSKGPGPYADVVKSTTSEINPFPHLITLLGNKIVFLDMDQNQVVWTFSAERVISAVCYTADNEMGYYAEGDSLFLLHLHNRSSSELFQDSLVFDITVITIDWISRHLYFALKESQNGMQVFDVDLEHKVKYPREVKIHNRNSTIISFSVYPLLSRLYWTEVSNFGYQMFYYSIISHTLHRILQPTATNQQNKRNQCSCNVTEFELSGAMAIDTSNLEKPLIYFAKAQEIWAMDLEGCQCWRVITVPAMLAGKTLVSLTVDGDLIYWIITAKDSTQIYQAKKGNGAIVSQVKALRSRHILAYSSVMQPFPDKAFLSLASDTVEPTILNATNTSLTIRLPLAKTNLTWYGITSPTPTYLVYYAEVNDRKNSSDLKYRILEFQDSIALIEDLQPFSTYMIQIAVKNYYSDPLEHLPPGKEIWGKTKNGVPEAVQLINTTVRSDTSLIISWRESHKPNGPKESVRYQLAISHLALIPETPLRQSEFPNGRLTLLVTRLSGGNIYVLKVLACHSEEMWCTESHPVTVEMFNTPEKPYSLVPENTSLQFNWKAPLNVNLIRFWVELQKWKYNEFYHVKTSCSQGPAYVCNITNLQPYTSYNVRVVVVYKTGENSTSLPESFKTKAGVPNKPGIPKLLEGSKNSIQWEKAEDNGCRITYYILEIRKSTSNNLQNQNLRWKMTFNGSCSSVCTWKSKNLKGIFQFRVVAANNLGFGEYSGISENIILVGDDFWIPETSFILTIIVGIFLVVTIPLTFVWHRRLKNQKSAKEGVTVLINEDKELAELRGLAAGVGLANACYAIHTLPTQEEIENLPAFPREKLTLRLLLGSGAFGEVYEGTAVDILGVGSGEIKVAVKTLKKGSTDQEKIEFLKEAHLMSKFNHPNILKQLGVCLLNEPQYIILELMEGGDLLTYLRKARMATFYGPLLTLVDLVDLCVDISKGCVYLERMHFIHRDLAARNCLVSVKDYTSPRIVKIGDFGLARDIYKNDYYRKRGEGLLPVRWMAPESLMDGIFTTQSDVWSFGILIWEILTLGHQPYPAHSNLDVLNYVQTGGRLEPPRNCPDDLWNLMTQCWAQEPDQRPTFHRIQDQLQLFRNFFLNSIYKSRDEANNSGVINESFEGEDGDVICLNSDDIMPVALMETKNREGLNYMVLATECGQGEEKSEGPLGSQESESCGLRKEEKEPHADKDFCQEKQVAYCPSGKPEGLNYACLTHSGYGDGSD
Sequence of ALK tyrosine kinase receptor (Homo sapiens, UniProt Q9UM73, L1196M) (Q9UM73 19-1620 L1196M limits assumed): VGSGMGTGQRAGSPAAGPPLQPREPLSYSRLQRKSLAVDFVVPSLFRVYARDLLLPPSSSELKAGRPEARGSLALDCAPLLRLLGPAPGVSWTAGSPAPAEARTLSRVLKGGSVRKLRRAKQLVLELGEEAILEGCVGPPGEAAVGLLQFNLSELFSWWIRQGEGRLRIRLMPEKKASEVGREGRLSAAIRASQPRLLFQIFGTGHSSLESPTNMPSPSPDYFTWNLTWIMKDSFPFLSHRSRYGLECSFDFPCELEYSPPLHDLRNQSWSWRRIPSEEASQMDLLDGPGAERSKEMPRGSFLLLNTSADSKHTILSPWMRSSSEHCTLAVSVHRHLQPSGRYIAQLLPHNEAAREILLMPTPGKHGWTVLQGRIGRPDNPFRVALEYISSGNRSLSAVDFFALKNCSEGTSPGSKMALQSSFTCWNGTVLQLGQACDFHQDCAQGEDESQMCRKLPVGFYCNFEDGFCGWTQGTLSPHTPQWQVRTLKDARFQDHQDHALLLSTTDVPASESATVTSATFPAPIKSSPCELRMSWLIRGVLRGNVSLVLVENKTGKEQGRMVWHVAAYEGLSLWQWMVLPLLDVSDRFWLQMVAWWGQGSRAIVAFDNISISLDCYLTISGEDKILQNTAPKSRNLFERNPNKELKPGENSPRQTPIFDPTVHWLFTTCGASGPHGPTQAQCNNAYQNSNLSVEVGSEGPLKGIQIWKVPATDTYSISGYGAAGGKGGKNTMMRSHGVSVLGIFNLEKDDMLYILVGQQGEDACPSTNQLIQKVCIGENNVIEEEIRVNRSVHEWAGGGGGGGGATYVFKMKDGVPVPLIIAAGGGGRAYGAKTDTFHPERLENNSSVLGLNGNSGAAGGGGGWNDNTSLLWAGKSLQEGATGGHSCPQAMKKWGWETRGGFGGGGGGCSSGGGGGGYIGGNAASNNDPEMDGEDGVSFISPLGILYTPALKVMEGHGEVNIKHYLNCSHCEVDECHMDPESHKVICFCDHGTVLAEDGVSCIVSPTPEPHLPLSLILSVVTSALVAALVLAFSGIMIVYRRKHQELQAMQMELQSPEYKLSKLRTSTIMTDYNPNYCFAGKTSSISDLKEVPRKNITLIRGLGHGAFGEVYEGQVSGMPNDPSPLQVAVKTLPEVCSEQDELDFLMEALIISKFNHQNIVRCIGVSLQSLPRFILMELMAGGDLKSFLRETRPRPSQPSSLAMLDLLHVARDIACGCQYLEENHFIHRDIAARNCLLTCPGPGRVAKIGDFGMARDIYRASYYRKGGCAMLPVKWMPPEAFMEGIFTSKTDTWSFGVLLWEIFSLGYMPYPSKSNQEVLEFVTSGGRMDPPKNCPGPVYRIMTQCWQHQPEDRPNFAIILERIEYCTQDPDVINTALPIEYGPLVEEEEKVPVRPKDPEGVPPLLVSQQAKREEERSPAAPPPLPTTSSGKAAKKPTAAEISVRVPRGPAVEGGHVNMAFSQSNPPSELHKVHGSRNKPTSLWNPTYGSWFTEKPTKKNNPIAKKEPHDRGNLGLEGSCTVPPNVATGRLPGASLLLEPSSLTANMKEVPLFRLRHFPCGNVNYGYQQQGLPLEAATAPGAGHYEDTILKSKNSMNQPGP
Sequence of Epidermal growth factor receptor (P00533 whole entry): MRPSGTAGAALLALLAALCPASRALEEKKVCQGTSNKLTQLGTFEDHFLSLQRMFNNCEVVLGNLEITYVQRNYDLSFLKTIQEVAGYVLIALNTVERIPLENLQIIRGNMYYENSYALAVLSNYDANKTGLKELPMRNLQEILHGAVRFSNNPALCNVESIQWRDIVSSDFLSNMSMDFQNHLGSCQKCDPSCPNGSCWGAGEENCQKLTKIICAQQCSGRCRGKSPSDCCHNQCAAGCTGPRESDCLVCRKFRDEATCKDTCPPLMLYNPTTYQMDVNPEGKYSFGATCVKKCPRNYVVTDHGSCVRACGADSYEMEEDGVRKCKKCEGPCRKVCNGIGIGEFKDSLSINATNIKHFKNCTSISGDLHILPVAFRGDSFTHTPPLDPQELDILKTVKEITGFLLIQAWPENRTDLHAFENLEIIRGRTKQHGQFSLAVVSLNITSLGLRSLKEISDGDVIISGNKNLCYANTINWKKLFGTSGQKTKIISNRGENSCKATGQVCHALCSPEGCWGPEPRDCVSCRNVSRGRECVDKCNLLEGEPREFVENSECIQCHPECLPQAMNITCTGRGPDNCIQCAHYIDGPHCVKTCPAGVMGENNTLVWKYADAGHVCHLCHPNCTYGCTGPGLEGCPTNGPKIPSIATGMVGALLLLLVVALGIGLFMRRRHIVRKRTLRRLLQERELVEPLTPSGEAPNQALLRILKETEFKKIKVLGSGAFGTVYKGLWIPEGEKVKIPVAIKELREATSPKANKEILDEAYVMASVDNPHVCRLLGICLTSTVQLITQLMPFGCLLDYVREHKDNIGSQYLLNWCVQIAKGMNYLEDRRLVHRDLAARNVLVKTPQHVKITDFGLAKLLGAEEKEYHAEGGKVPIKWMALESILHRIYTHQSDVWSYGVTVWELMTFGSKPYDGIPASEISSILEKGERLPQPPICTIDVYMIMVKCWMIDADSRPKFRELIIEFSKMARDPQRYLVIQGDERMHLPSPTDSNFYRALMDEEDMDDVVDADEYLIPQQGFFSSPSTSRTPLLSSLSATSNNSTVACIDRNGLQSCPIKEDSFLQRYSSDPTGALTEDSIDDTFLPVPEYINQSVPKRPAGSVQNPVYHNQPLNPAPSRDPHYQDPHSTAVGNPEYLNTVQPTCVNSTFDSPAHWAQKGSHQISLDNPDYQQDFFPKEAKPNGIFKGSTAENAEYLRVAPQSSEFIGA

Compound	IC50 (KARPAS-299)	IC50 (NCI-H2228)	IC50 (BaF3 [1])	IC50 (BaF3 [2])	IC50 (HCC78)	IC50 (A549 [3])	IC50 (A549 [4])	AUC(0-t) [5]	IC50 [6]	IC50 [7]	IC50 [8]	Tmax [9]	half-life [10]	AUC(0-inf) [11]	IC50 [12]	IC50 [13]	Cmax (in vivo)
COc1cc(N2CCN(CC(=O)NCC#N)C2=O)ccc1Nc1ncc(Cl)c(Nc2ccccc2S(=O)(=O)C(C)C)n1	150 nM	230 nM	2790 nM	> 5000 nM	77 nM	2410 nM	4120 nM	–	–	–	–	–	–	–	–	–	–
COc1cc(N2CCN(CC(=O)N3CCC(C)CC3)C2=O)ccc1Nc1ncc(Cl)c(Nc2ccccc2S(=O)(=O)C(C)C)n1	280 nM	350 nM	> 5000 nM	> 5000 nM	870 nM	2360 nM	> 5000 nM	–	–	–	–	–	–	–	–	–	–
COc1cc(N2CCNC2=O)ccc1Nc1ncc(Cl)c(Nc2ccccc2S(=O)(=O)C(C)C)n1	38 nM	350 nM	450 nM	2710 nM	97 nM	100 nM	> 5000 nM	1400 ng·h/mL	7.3 nM	4.2 nM	20.1 nM	5.1 h	1.4 h	1660 ng·h/mL	6.8 nM	765 nM	257 ng/mL
COc1cc(N2CCN(CC(=O)N(C)C)C2=O)ccc1Nc1ncc(Cl)c(Nc2ccccc2S(=O)(=O)C(C)C)n1	95 nM	530 nM	1380 nM	> 5000 nM	93 nM	1230 nM	2300 nM	–	6.7 nM	3.7 nM	23.4 nM	–	–	–	0.97 nM	598 nM	–
COc1cc(N2CCN(CC(=O)N3CCC(=O)CC3)C2=O)ccc1Nc1ncc(Cl)c(Nc2ccccc2S(=O)(=O)C(C)C)n1	100 nM	92 nM	460 nM	> 5000 nM	670 nM	3550 nM	> 5000 nM	–	5.3 nM	2.7 nM	15.6 nM	–	–	–	1.7 nM	> 1000 nM	–
COc1cc(N2CCN(C(=O)N(C)C)C2=O)ccc1Nc1ncc(Cl)c(Nc2ccccc2S(=O)(=O)C(C)C)n1	250 nM	610 nM	> 5000 nM	> 5000 nM	670 nM	1410 nM	2590 nM	–	–	–	–	–	–	–	–	–	–
COc1cc(N2CCN(CCN3CCOCC3)C2=O)ccc1Nc1ncc(Cl)c(Nc2ccccc2S(=O)(=O)C(C)C)n1	390 nM	750 nM	110 nM	> 5000 nM	730 nM	2170 nM	> 5000 nM	–	–	–	–	–	–	–	–	–	–
COc1cc(N2CCN(CC(=O)N3CCOCC3)C2=O)ccc1Nc1ncc(Cl)c(Nc2ccccc2S(=O)(=O)C(C)C)n1	760 nM	570 nM	2060 nM	> 5000 nM	210 nM	970 nM	> 5000 nM	–	–	–	–	–	–	–	–	–	–
COc1cc(N2CCN(CC(=O)N3CCCC3)C2=O)ccc1Nc1ncc(Cl)c(Nc2ccccc2S(=O)(=O)C(C)C)n1	390 nM	150 nM	2490 nM	4500 nM	270 nM	1100 nM	3100 nM	–	–	–	–	–	–	–	–	–	–
COc1cc(N2CCN(CC(=O)N3CC(O)C3)C2=O)ccc1Nc1ncc(Cl)c(Nc2ccccc2S(=O)(=O)C(C)C)n1	130 nM	320 nM	4280 nM	> 5000 nM	110 nM	1020 nM	2970 nM	–	–	–	–	–	–	–	–	–	–
COc1cc(N2CCN(CC(=O)NC3CC3)C2=O)ccc1Nc1ncc(Cl)c(Nc2ccccc2S(=O)(=O)C(C)C)n1	270 nM	910 nM	> 5000 nM	> 5000 nM	510 nM	1740 nM	> 5000 nM	–	–	–	–	–	–	–	–	–	–
COc1cc(N2CCN(CC(=O)O)C2=O)ccc1Nc1ncc(Cl)c(Nc2ccccc2S(=O)(=O)C(C)C)n1	3270 nM	1710 nM	> 5000 nM	> 5000 nM	2510 nM	> 5000 nM	> 5000 nM	–	–	–	–	–	–	–	–	–	–
COc1cc(N2CCN(CC(=O)N3CCCCC3)C2=O)ccc1Nc1ncc(Cl)c(Nc2ccccc2S(=O)(=O)C(C)C)n1	150 nM	530 nM	2970 nM	> 5000 nM	490 nM	1070 nM	> 5000 nM	–	–	–	–	–	–	–	–	–	–
CNC(=O)CN1CCN(c2ccc(Nc3ncc(Cl)c(Nc4ccccc4S(=O)(=O)C(C)C)n3)c(OC)c2)C1=O	760 nM	670 nM	1710 nM	> 5000 nM	610 nM	140 nM	> 5000 nM	–	–	–	–	–	–	–	–	–	–
